# Results as given in ChEMBL document CHEMBL1147613, “A series of spirocyclic analogues as potent inhibitors of bacterial phenylalanyl-tRNA synthetases” (Bioorg Med Chem Lett, 2004).
# Molecular target: T1, Phenylalanine--tRNA ligase, mitochondrial (Homo sapiens, UniProt O95363)
# T1 sequence (O95363 whole entry): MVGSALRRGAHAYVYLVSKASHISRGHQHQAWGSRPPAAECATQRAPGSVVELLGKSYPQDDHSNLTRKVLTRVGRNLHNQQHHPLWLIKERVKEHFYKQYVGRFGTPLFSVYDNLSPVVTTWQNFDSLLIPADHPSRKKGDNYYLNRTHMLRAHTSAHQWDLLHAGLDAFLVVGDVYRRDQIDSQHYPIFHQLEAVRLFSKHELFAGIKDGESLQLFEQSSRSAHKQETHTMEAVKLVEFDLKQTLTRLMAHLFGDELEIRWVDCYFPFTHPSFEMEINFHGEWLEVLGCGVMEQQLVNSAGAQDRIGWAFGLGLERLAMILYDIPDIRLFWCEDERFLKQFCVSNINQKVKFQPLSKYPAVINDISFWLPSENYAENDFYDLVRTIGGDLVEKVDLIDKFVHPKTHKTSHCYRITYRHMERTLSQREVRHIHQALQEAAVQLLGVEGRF
# Experiment: Inhibitory activity against human phenylalanyl-tRNA synthetase was determined
structure (smiles),measurement,value
Cc1ccc(N2C(=O)[C@H]3[C@@H](C2=O)C2(N[C@H]3c3ccccc3)C(=O)c3ccccc3C2=O)cc1Cl,IC50,> 100 µM
Cc1ccc(N2C(=O)[C@@H]3C(c4ccccc4)OC4(C(=O)c5ccccc5C4=O)[C@@H]3C2=O)cc1Cl (some centres undefined),IC50,> 100 µM
O=C(c1ccccc1)C1N[C@@H](c2ccccc2)[C@H]2C(=O)N(c3ccc(Cl)c(Cl)c3)C(=O)[C@@H]12 (some centres undefined),IC50,> 100 µM
O=C(c1ccccc1)C1N[C@@H](c2ccccc2)[C@@H]2C(=O)N(c3ccc(Cl)c(Cl)c3)C(=O)[C@H]12 (some centres undefined),IC50,> 100 µM
Cc1ccc(N2C(=O)[C@H]3C(c4ccccc4)OC4(C(=O)c5ccccc5C4=O)[C@H]3C2=O)cc1Cl (some centres undefined),IC50,> 100 µM
COc1ccccc1N1C(=O)[C@@H]2C(c3ccccc3C)OC3(C(=O)c4ccccc4C3=O)[C@@H]2C1=O (some centres undefined),IC50,> 100 µM
O=C1[C@@H]2C(c3ccc(Cl)cc3)OC3(C(=O)c4ccccc4C3=O)[C@@H]2C(=O)N1c1ccc(Cl)c(C(F)(F)F)c1 (some centres undefined),IC50,> 100 µM
O=C1C2C(c3ccccc3)OC3(C(=O)c4ccccc4C3=O)C2C(=O)N1c1ccc2c(c1)OCO2 (centres undefined),IC50,> 100 µM
COc1ccc(N2C(=O)[C@@H]3C(c4ccccc4)OC4(C(=O)c5ccccc5C4=O)[C@@H]3C2=O)cc1 (some centres undefined),IC50,> 100 µM
O=C1[C@H]2[C@H](c3ccccc3)NC3(C(=O)c4ccccc4C3=O)[C@H]2C(=O)N1c1ccc(Cl)c(Cl)c1,IC50,> 100 µM
O=C1[C@@H]2C(c3ccccc3)OC3(C(=O)c4ccccc4C3=O)[C@@H]2C(=O)N1c1ccc([N+](=O)[O-])cc1 (some centres undefined),IC50,> 100 µM
O=C1[C@H]2[C@@H](C(=O)N1c1ccc(Cl)c(Cl)c1)C1(N[C@H]2c2ccccc2)C(=O)c2ccccc2C1=O,IC50,> 100 µM
O=C1[C@@H]2C(c3ccccc3)OC3(C(=O)c4ccccc4C3=O)[C@@H]2C(=O)N1c1ccc(Cl)c(C(F)(F)F)c1 (some centres undefined),IC50,> 100 µM
COc1ccccc1N1C(=O)C2C(c3ccccc3)OC3(C(=O)c4ccccc4C3=O)C2C1=O (centres undefined),IC50,> 100 µM
Cc1ccc(C2OC3(C(=O)c4ccccc4C3=O)[C@@H]3C(=O)N(c4ccc5c(c4)OCO5)C(=O)[C@H]23)cc1 (some centres undefined),IC50,> 100 µM
COC(=O)C1N[C@@H](c2ccccc2)[C@H]2C(=O)N(c3ccc(Cl)c(Cl)c3)C(=O)[C@@H]12 (some centres undefined),IC50,> 100 µM
Cc1ccc(N2C(=O)[C@H]3[C@H](c4ccccc4)NC4(C(=O)c5ccccc5C4=O)[C@H]3C2=O)cc1Cl,IC50,> 100 µM
O=C1[C@H]2[C@H](c3ccccc3)NC3(Cc4ccccc4C3)[C@H]2C(=O)N1c1ccc(Cl)c(Cl)c1,IC50,> 100 µM
O=C1[C@H]2[C@@H](C(=O)N1c1ccc(Cl)c(Cl)c1)C1(Cc3ccccc3C1)N[C@H]2c1ccccc1,IC50,> 100 µM
